Assay results from paper PMC7956620 (Molecules, 2021).
Read-outs that look alike come from different tables or passages of the source.

Molecular target: T1, human 5-HT3A receptor (Homo sapiens, UniProt P46098)
T1 construct: host or cells: Xenopus laevis oocytes injected with in vitro transcribed mRNA
T1 sequence (P46098 24-478): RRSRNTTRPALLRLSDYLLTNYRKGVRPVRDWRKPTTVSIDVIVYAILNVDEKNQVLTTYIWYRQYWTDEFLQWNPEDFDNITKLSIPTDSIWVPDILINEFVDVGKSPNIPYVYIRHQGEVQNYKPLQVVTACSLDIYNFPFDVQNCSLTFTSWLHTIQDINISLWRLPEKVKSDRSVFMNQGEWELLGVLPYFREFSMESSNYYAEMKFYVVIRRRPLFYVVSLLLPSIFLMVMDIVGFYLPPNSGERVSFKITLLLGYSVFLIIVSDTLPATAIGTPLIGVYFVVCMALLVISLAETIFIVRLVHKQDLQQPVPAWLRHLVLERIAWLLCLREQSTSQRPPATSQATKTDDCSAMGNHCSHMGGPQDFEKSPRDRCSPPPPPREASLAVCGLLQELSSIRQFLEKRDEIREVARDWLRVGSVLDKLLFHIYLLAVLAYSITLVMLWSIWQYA
Assay: cell-based
Assay type: cell-based
Conditions: for inhibition of voltage ramp current activated by 5-HT: 100 µM 5-HT and EC
Protocol: Human 5-hydroxytryptamine (serotonin) receptor 3A cDNA (Genebank number: BC004453) was obtained from OriGene (Rockville, MD, USA). Figure 1A represents the chemical structure of two ergot alkaloids, EG and EC, obtained from Sigma-Aldrich (St. Louis, MO, USA). These ergot alkaloids were diluted in bath solution after dissolving in dimethyl sulfoxide (DMSO) for use as stock solutions. The final treatment concentration of DMSO was less than 0.01%. Xenopus laevis frogs were obtained from the Korean Xenopus Resource Center for Research (KXRCR000001, Chuncheon, Gangwondo, Korea), and other agents were purchased from Sigma-Aldrich.
To isolate oocytes, female Xenopus laevis were put into a container filled with ice and left for about one hour. When the blood vessels contracted and fell into a state similar to hibernation, the abdomen was incised, and the ovaries were removed and cut into small pieces in Ca^2+-free OR2 solution (82.5 mM NaCl, 2.5 mM KCl, 1 mM MgCl2, and 5 mM HEPES, pH 7.4) with 2 mg/mL collagenase. After a 2 h agitation to digest the follicle membranes, isolated oocytes in stages Ⅴ and Ⅵ were selected and washed repeatedly. The selected oocytes were maintained in ND96 incubation solution (96 mM NaCl, 2 mM KCl, 1.8 mM CaCl2, 1 mM MgCl2, 5 mM HEPES, 2.5 mM sodium pyruvate, and 50 µg/mL gentamycin, pH 7.4) at 16–18 °C. The solution containing the oocytes was changed twice a day and stored in a shaking incubator. Under the microscope, the end of a glass capillary was broken and fitted with a 20 µm diameter needle and filled with mineral oil, discharging air bubbles from the tip. When the Xenopus oocytes were ready for injection, 50 ng of mRNA was injected with a nanoliter injector (Drummond Scientific, Vernon Hills, IL, USA). The recording was started after two days of sufficient shaking incubation in ND96 solution. Surgery, microinjections, and the other handling of Xenopus laevis followed the standard protocols.
The oocytes in which mRNA was expressed during the incubation period allowed for the estimation of channel or receptor properties for observing drug and ligand potential interactions using a two-electrode voltage clamp (OC-725C; Warner Instruments, Hamden, CT, USA) and Digidata (1322A; Molecular Devices, Sunnyvale, CA, USA). The two-electrode voltage clamp had voltage and current electrodes that stably maintained the potential and delivered the transmembrane potential and high current. […] A computer transferred the converted output amplitude of the voltage clamp amplifiers to an input digital converter using pClamp 10 software (Axon Instruments, Union City, CA, USA). The voltage and current electrodes were filled with 3 M KCl (0.3–0.7 MΩ) and analyzed at a −80 mV holding potential. The oocytes were placed in the chamber and exposed to a ND96 solution at a flow rate of 2 mL per minute. In the electrophysiological experiments, the voltage ramp recording was performed at room temperature, and a current from −80 to +60 mV was applied to determine the current and voltage relationships. Inward peak traces of the 5-HT3A receptor and voltage ramp traces were converted to a value through Clampfit 9.0 (Molecular Devices, San Jose, CA, USA).
In the experiments, all data were represented as the mean ± SEM (standard error of the mean) of the 5-HT-stimulated inward peak in the 5-HT3A receptors. […] All curves plotted through the Hill equation were generated using Origin Pro 7.0 (OriginLab, Northampton, MA, USA). The significance of differences between the control and chanoclavine treatment was determined according to the p-value in the Student’s t-test. p-values of less than 0.05 were considered statistically significant.

## CN[C@@H]1Cc2c[nH]c3cccc(c23)[C@H]1/C=C(\C)CO [chanoclavine]
10 µM compound with 100 µM 5-HT, −80 mV, read-out: inhibition of I5-HT
  inhibition at 10 µM: 4 ± 3.8%
30 µM compound with 100 µM 5-HT, −80 mV, read-out: inhibition of I5-HT
  inhibition at 30 µM: 7.9 ± 4.1%
100 µM chanoclavine, wild type, read-out: Inhibition Percentage (%)
  inhibition at 100 µM: 42.5 ± 5.7%
100 µM compound with 100 µM 5-HT, −80 mV, read-out: inhibition of I5-HT
  inhibition at 100 µM: 42.5 ± 9.7%
200 µM compound with 100 µM 5-HT, −80 mV, read-out: inhibition of I5-HT
  inhibition at 200 µM: 61.6 ± 6.1%
300 µM compound with 100 µM 5-HT, −80 mV, read-out: inhibition of I5-HT
  inhibition at 300 µM: 75 ± 4.5%
5-HT 1 to 100 µM with 30 µM EC, −80 mV
  Imax of normalized 5-HT concentration-response current: 94.6 ± 24.4
5-HT 1 to 100 µM with 100 µM EC, −80 mV
  Imax of normalized 5-HT concentration-response current: 60 ± 2.2
+30 mV
  inhibition of voltage ramp current activated by 5-HT: 47.9 ± 3.4%
+60 mV
  inhibition of voltage ramp current activated by 5-HT: 49.5 ± 4%
Hill fit, co-application with 100 µM 5-HT, −80 mV
  maximum inhibition (Imax): 83.6 ± 12.6%
co-application with 5-HT, read-out: half-maximal inhibitory response concentration (IC50) for block of 5-HT-induced 5-HT3A response
  IC50: 107 µM
Competing at the same rate as 5-HT
  current relative to the control group: about 50%
Varied 5-HT concentration, fixed 30 or 100 µM chanoclavine
  manner of regulation of 5-HT3A-receptor channel activity: competitive
−30 mV
  inhibition of voltage ramp current activated by 5-HT: 40.9 ± 1.1%
−80 mV holding potential, data not shown
  effect of compound alone (without 5-HT): no change
